We go through 9 compounds from ChEMBL document CHEMBL1201862, “PubChem BioAssay data set” (2004).

Among the test systems are A549; CCRF-CEM; HCC 2998; HCT-116; IGROV-1; K562; KM12; OVCAR-8; RPMI-8226; SF-268; SF-539; SK-MEL-28; SN12C; SNB-75; U-251; DU-145; MDA-MB-231; MDA-MB-435; NCI/ADR-RES.
What all share (experiment): growth of human tumour cells (NCI), 48 h

Each structure is given as a SMILES string.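 Five concentrations, 48 hours, 96-well plates. GI50 = concentration required for 50% inhibition of growth.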 Active and inactive are the calls of the source. Cut-off read from the data, not from the text of the source: active = GI50 up to about 1.1 µM and inactive = higher. Some results are limits rather than exact numbers.

As for `COc1ccc(CCc2ccccc2CC(=O)O)cc1`, the GI50 in the assay with A549, with CCRF-CEM, in the assay with HCC 2998, in the assay with HCT-116, in the assay on IGROV-1 and in the assay with K562 was > 100 µM (inactive) each time. The GI50 in the assay on KM12, in the assay with OVCAR-8, in the assay on RPMI-8226, in the assay with SF-268, in the assay on SF-539 and with SK-MEL-28 was > 100 µM (inactive) each time. The GI50 in the assay with SN12C, in the assay with SNB-75 and with U-251 was > 100 µM (inactive) in each case.

On to `OC1=CN=COc2ccccc21`, for which the GI50 in the assay on A549, with CCRF-CEM, in the assay with HCC 2998, in the assay on HCT-116, in the assay with IGROV-1 and in the assay with K562 was > 100 µM (inactive) each time. For the same compound, the GI50 with KM12, with OVCAR-8, in the assay on RPMI-8226, in the assay with SF-268, in the assay on SF-539 and in the assay with SK-MEL-28 was > 100 µM (inactive) in each case. Moreover, the results for the GI50 in the assay on SN12C, with SNB-75 and in the assay with U-251 were > 100 µM (inactive), 32.3 µM (inactive) and > 100 µM (inactive), respectively.

`O=C1CC2(CCN(CC3COc4ccccc4O3)CC2)C(=O)N1N1CCCCCC1` (stereo not given): the GI50 with A549 is > 100 µM (inactive); with CCRF-CEM it was 29.4 µM (inactive); with DU-145, 32.7 µM (inactive); in the assay with HCT-116 it was 52.6 µM (inactive); in the assay on IGROV-1 it was > 100 µM (inactive); in the assay on K562, 15.6 µM (inactive). The GI50 in the assay on MDA-MB-231 is > 100 µM (inactive); with MDA-MB-435, 40 µM (inactive); in the assay with NCI/ADR-RES, 52.7 µM (inactive); with OVCAR-8, 64.6 µM (inactive); in the assay with RPMI-8226, 59.8 µM (inactive); in the assay with SF-268, > 100 µM (inactive). Also, the GI50 is > 100 µM (inactive) in the assay on SF-539; > 100 µM (inactive) with SK-MEL-28; > 100 µM (inactive) in the assay on SN12C; 76.4 µM (inactive) in the assay on SNB-75; > 100 µM (inactive) with U-251.

Regarding `CC(=O)CC(=O)NC=O`, the GI50 with A549, in the assay on CCRF-CEM, with HCC 2998, in the assay on HCT-116, in the assay with IGROV-1 and in the assay with K562 was > 100 µM (inactive) throughout. Moreover, the GI50 in the assay on KM12, with OVCAR-8, in the assay with RPMI-8226, with SF-268, in the assay on SF-539 and in the assay with SK-MEL-28 was > 100 µM (inactive) each time. The GI50 in the assay with SN12C, with SNB-75 and with U-251 was > 100 µM (inactive) each time.

Take `O=C(Cc1ccccc1)NS(=O)(=O)c1ccccc1`: the GI50 in the assay on A549, in the assay on CCRF-CEM, in the assay on HCC 2998, in the assay with HCT-116, in the assay with IGROV-1 and in the assay with K562 was > 100 µM (inactive) throughout. Further, the GI50 in the assay with KM12, in the assay with OVCAR-8, in the assay with RPMI-8226, in the assay on SF-268, in the assay with SF-539 and in the assay on SK-MEL-28 was > 100 µM (inactive) each time. In addition, the GI50 in the assay with SN12C, in the assay on SNB-75 and in the assay on U-251 was > 100 µM (inactive) throughout.

As to `CC[C@@H]1OC2(C)CC(S(=O)(=O)c3ccccc3)CC1O2` (stereo not given in full), the GI50 in the assay with A549, in the assay with CCRF-CEM, in the assay on HCC 2998, in the assay with HCT-116, in the assay on IGROV-1 and in the assay with K562 was > 100 µM (inactive) throughout. The GI50 with KM12, in the assay on OVCAR-8, with RPMI-8226, in the assay on SF-268, in the assay on SF-539 and in the assay on SK-MEL-28 was > 100 µM (inactive) throughout. In addition, the GI50 with SN12C, in the assay on SNB-75 and with U-251 was > 100 µM (inactive) each time.

On to `Cc1cc(NN)nc2[nH]nc(N)c12`, for which the GI50 with A549, in the assay on CCRF-CEM, in the assay with DU-145, in the assay with HCT-116, in the assay with IGROV-1 and in the assay on K562 was > 100 µM (inactive) each time. Moreover, the GI50 was > 100 µM (inactive) with KM12; 45.4 µM (inactive) in the assay on MDA-MB-231; 93.1 µM (inactive) in the assay on MDA-MB-435; > 100 µM (inactive) in the assay with NCI/ADR-RES; > 100 µM (inactive) in the assay with OVCAR-8; > 100 µM (inactive) in the assay with RPMI-8226. Besides, the GI50 in the assay with SF-268, with SF-539, in the assay with SK-MEL-28, with SN12C, with SNB-75 and with U-251 was > 100 µM (inactive) each time.

Take `COC(=O)[C@@]12OC[C@]34C([C@@H](O)C1O)[C@@]1(C)CC(=O)C(O)=C(C)C1C[C@H]3OC(=O)[C@H](OC(=O)/C=C(/c1ccccc1)C(F)(F)F)[C@H]42` (stereo not given in full): the GI50 in the assay on A549 is 4.33 µM (inactive); in the assay on CCRF-CEM, 3.88 µM (inactive); with HCC 2998, 1.75 µM (inactive); in the assay with HCT-116 it was 2.43 µM (inactive); in the assay on IGROV-1, 2.16 µM (inactive); with K562, 4.93 µM (inactive). Moreover, the GI50 is 5.74 µM (inactive) in the assay with KM12; 10.5 µM (inactive) in the assay on OVCAR-8; 1.56 µM (inactive) in the assay with RPMI-8226; 8.81 µM (inactive) in the assay on SF-268; 1 µM (active) with SF-539; 4.72 µM (inactive) with SK-MEL-28. Also, the results for the GI50 in the assay with SN12C, with SNB-75 and in the assay on U-251 were 8.69 µM (inactive), 7.8 µM (inactive) and 4.41 µM (inactive), respectively.

For the compound `CCC1(O)C(=O)OCc2c1cc1n(c2=O)Cc2cc3ccc(CO)cc3nc2-1` (stereo not given), the GI50 in the assay with A549 is 6.04 µM (inactive); in the assay with CCRF-CEM, 0.186 µM (active); in the assay with HCC 2998 it was 8.26 µM (inactive); in the assay with HCT-116, 4.85 µM (inactive); in the assay on IGROV-1 it was 12.2 µM (inactive); in the assay on K562, 4.3 µM (inactive). In addition, the GI50 in the assay with KM12 is 9.35 µM (inactive); in the assay on OVCAR-8 it was 2.62 µM (inactive); in the assay on RPMI-8226 it was 7.08 µM (inactive); with SF-268, 0.995 µM (active); in the assay with SF-539, 1.42 µM (inactive); with SK-MEL-28, > 78.5 µM (inactive). Further, the GI50 in the assay on SN12C is 1.53 µM (inactive); in the assay on SNB-75, 2.18 µM (inactive); in the assay with U-251 it was 0.705 µM (active).
